Data as given in patent US20040220148A1, “5-Membered ring heterocycles as inhibitors of leucocyte adhesion and as VLA-4 antagonists” (Aventis Pharma Deutschland GmbH, priority 1996, published 2004).
Counter-ions that a name gives are not always drawn.

Biological target: T1, VLA-4 integrins on human U937 cells (interaction between VCAM-1 and VLA-4) (Homo sapiens, UniProt P05556+P13612)
T1 construct: the VLA-4 integrins, are offered in their natural form as surface molecules on human U937 cells; host or cells: U937 cells (VLA-4, endogenous); the partner hVCAM-1(1-3)-IgG came from the supernatant of transfected COS cells (ATCC CRL1651)
T1 sequence (P13612 34-1032): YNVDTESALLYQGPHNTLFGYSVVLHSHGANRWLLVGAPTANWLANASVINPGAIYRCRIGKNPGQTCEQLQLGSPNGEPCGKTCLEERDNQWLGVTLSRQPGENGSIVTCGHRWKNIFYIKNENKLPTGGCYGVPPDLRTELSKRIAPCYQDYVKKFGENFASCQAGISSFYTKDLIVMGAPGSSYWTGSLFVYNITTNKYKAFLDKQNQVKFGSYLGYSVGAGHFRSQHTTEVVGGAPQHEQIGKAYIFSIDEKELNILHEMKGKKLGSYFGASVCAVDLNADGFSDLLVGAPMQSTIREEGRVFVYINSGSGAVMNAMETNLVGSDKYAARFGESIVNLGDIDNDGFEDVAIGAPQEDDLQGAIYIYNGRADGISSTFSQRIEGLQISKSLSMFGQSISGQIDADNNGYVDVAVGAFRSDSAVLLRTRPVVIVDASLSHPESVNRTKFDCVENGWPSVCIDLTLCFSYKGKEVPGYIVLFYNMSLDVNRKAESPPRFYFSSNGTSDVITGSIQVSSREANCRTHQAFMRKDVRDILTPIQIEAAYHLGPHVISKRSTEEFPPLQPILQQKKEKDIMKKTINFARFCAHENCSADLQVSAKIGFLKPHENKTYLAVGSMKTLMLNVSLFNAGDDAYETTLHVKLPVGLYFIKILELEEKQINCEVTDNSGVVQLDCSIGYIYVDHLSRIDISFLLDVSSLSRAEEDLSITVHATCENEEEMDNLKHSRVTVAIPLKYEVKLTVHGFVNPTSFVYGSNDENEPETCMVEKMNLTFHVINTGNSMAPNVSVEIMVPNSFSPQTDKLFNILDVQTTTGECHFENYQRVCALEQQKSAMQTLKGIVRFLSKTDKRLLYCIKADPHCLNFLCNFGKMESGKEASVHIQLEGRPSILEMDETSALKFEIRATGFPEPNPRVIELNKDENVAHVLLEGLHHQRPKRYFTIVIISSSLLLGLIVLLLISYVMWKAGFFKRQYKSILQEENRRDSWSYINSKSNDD
T1 sequence (P05556 21-798): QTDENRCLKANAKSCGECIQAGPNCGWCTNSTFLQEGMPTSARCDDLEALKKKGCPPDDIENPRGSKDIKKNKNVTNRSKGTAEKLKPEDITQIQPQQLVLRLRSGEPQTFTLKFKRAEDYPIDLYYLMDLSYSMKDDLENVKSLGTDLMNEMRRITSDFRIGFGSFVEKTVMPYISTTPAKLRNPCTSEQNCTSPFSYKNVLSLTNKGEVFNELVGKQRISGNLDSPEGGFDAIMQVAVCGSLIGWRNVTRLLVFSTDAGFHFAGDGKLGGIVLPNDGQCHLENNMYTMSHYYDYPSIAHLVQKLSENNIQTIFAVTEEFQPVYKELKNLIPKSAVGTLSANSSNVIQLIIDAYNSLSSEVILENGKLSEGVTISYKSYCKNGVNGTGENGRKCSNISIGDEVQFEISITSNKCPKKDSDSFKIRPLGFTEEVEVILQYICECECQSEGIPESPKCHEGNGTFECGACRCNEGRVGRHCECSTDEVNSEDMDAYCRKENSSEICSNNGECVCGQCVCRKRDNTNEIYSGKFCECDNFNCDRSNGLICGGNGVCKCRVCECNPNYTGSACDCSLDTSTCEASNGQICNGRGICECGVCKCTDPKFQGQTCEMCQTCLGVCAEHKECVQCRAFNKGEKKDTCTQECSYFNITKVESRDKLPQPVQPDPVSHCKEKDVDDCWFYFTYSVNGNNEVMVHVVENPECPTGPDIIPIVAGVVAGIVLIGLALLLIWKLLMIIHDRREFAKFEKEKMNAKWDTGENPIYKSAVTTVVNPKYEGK
Assay: U937/VCAM-1 cell adhesion test (adhesion of U937 cells to hVCAM-1(1-3)-IgG)
Type: cell-based
Details: concentration leading to 50% inhibition of adhesion
Description: As a test method for the activity of the compounds of the formula I on the interaction between VCAM-1 and VLA-4, an assay which is specific for this interaction is used. The cellular binding components, i.e. the VLA-4 integrins, are offered in their natural form as surface molecules on human U937 cells (ATCC CRL 1593) which belong to the group of leucocytes. As specific binding components, recombinant soluble fusion proteins prepared by genetic engineering and consisting of the extracytoplasmic domains of human VCAM-1 and the constant region of a human immunoglobulin of the subclass IgG1 are used.
Assay for the Measurement of the Adhesion of U937 Cells (ATCC CRL 1593) to hVCAM-1 (1-3)-IgG
1. Preparation of Human VCAM-1(1-3)-IgG and Human CD4-IgG
A genetic construct for the expression of the extracellular domains of human VCAM-1 was employed, associated with the genetic sequence of the heavy chain of human immunoglobulin IgG1 (hinge, CH2 and CH3 regions), from Dr. Brian Seed, Massachusetts General Hospital, Boston, USA. The soluble fusion protein hVCAM-1(1-3)-IgG contained the three amino-terminal extracellular immunoglobulin-like domains of human VCAM-1 (Damle and Aruffo, Proc. Natl. Acad. Sci. USA 1991, 88, 6403). CD4-IgG (Zettlmeissl et al, DNA and Cell Biology 1990, 9, 347) served as a fusion protein for negative controls. The recombinant proteins were expressed as soluble proteins after DEAE/dextran-mediated DNA-transfection in COS cells (ATCC CRL1651) according to standard procedures (Ausubel et al., Current protocols in molecular biology, John Wiley & Sons, Inc., 1994).
2. Assay for Measurement of the Adhesion of U937 Cells to hVCAM-1(1-3)-IgG
2.1 96-well microtiter test plates (Nunc Maxisorb) were incubated at room temperature for 1 hour with 100 μl/well of a goat-anti-human IgG antibody solution (10 μg/ml in 50 mM tris, pH 9.5). After removing the antibody solution, washing was carried out once with PBS.
2.2 150 μl/well of a blocking buffer (1% BSA in PBS) were incubated on the plates at room temperature for 0.5 hours. After removing the blocking buffer, washing was carried out once with PBS.
2.3 100 μl per well of a cell culture supernatant of transfected COS cells were incubated on the plates at room temperature for 1.5 hours. The COS cells were transfected with a plasmid which codes for the three N-terminal immunoglobulin-like domains of VCAM-1, coupled to the Fc part of human IgG1 (hVCAM-1(1-3)-IgG). The content of hVCAM-1 (1-3)-IgG was about […]. After removing the culture supernatant, washing was carried out once with PBS.
2.4 The plates were incubated at room temperature for 20 minutes with […] of Fc receptor blocking buffer (1 mg/ml of γ-globulin, 100 mM NaCl, 100 μM MgCl2, 100 μM MnCl2, 100 μM CaCl2, 1 mg/ml BSA in 50 mM HEPES, pH 7.5). After removing the Fc receptor blocking buffer, washing was carried out once with PBS.
2.5 20 μl of binding buffer (100 mM NaCl, 100 μM MgCl2, 100 μM MgCl2, 100 μM CaCl2, 1 mg/ml BSA in 50 mM HEPES, pH 7.5), were initially introduced, the substances to be tested were added in 10 μl of binding buffer and the mixture was incubated for 20 minutes. As controls, antibodies against VCAM-1 (BBT, No. BBA6) and against VLA-4
(Immunotech, No. 0764) were used.
2.6 U937 cells were incubated in Fc receptor blocking buffer for 20 minutes and then pipetted in at a concentration of 1×10^6/ml and in an amount of 100 μl per well ([…]).
2.7 The plates were slowly immersed at an angle of 45° in stop buffer (100 mM NaCl, 100 μM MgCl2, 100 μM MnCl2, 100 μM CaCl2 in 25 mM Tris, pH 7.5) and shaken off. The process was repeated.
2.8 50 μl/well of a dye solution (16.7 μg/ml of Hoechst dye 33258, 4% formaldehyde, 0.5% Triton X-100 in PBS) were then incubated on the plates for 15 minutes.
2.9 The plates were shaken off and slowly immersed at an angle of 45° in stop buffer (100 mM NaCl, 100 μM MgCl2, 100 μM MnCl2, 100 μM CaCl2 in 25 mM Tris, pH 7.5). The process was repeated. […]

| Structure (SMILES) | IC50 [µM] |
| --- | --- |
| CC1(c2ccc(CNC(=N)N)cc2)C(=O)N(CC(=O)N[C@@H](CC(=O)O)C(=O)N[C@H](C(=O)O)c2ccccc2)C(=O)N1Cc1ccccc1 (stereo partly drawn) [Example 69, ((R,S)-4-(4-Guanidinomethylphenyl)-3-benzyl-4-methyl-2,5-dioxo-imidazolidin-1-yl)acetyl-L-aspartyl-L-phenylglycine] | 4.5 |
| CC1(c2ccc(C(=N)N)cc2)C(=O)N(CC(=O)N[C@@H](CC(=O)O)C(=O)N[C@H](C(=O)O)c2ccccc2)C(=O)N1Cc1ccc([N+](=O)[O-])cc1 (mixture of isomers) [Example 7, ((R,S)-4-(4-(Amino-imino-methyl)phenyl)-3-(4-nitrobenzyl)-4-methyl-2,5-dioxoimidazolidin-1-yl)acetyl-L-aspartyl-L-phenylglycine] | 25 |
| CC1(c2ccc(C(=N)N)cc2)C(=O)N(CC(=O)NC[C@H](NC(=O)OCc2ccc(C(F)(F)F)cc2)C(=O)O)C(=O)N1Cc1ccccc1 (stereo partly shown) [Example 67] | 2.25 |
| CC1(c2ccc(N)cc2)C(=O)N(CC(=O)N[C@@H](CC(=O)O)C(=O)N[C@H](C(=O)O)c2ccccc2)C(=O)N1Cc1ccccc1 (stereo partly drawn) [Example 70, ((R,S)-4-(4-Aminophenyl)-3-benzyl-4-methyl-2,5-dioxoimidazolidin-1-yl)acetyl-L-aspartyl-L-phenylglycine] | 3 |
| CN1C(=O)N(CC(=O)N[C@@H](CC(=O)O)C(=O)N[C@H](C(=O)O)c2ccccc2)C(=O)C1(C)c1ccc(C(=N)N)cc1 (stereo partly drawn) [Example 2, ((R,S)-4-(4-(Amino-imino-methyl)phenyl)-3,4-dimethyl-2,5-dioxo-imidazolidin-1-yl)acetyl-L-aspartyl-L-phenylglycine] | 15 |
| COC(=O)[C@@H](NC(=O)[C@H](CC(=O)O)NC(=O)CN1C(=O)N(Cc2ccccc2)C(C)(c2ccc(C(=N)N)cc2)C1=O)c1ccccc1 (mixture of isomers) [Example 25, ((R,S)-4-(4-(Amino-imino-methyl)phenyl)-3-benzyl-4-methyl-2,5-dioxo-imidazolidin-1-yl)acetyl-L-aspartyl-L-phenylglycine methyl ester] | 22 |

More lines, in order of falling IC50, values ahead:

| IC50 [µM] | Structure (SMILES) |
| --- | --- |
| 45 | CC1(c2ccc(C(=N)N)cc2)C(=O)N(CC(=O)NC(CC(=O)O)c2ccccc2)C(=O)N1Cc1ccccc1 [Example 33, (R,S)-3-(((R,S)-4-(4-(Amino-imino-methyl)phenyl)-3-benzyl-4-methyl-2,5-dioxoimidazolidin-1-yl)acetylamino)-3-phenylpropionic acid hydrochloride] |
| 3.5 | Cc1cc(C)cc(CN2C(=O)N(CC(=O)N[C@@H](CC(=O)O)C(=O)N[C@H](C(=O)O)c3ccccc3)C(=O)C2(C)c2ccc(C(=N)N)cc2)c1 (mixture of isomers) [Example 8, ((R,S)-4-(4-(Amino-imino-methyl)phenyl)-3-(3,5-dimethylbenzyl)-4-methyl-2,5-dioxoimidazolidin-1-yl)acetyl-L-aspartyl-L-phenylglycine] |
| 3.25 | CC1(c2ccc(NC(=N)N)cc2)C(=O)N(CC(=O)N[C@@H](CC(=O)O)C(=O)N[C@H](C(=O)O)c2ccccc2)C(=O)N1Cc1ccccc1 (stereo partly drawn) [Example 71, ((R,S)-4-(4-Guanidinophenyl)-3-benzyl-4-methyl-2,5-dioxoimidazolidin-1-yl)acetyl-Laspartyl-L-phenylglycine] |
| 0.25 | CC1(c2ccc(C(=N)N)cc2)C(=O)N(CC(=O)N[C@@H](CC(=O)O)C(=O)N[C@H](C(=O)O)c2ccccc2)C(=O)N1Cc1ccc(-c2ccccc2)cc1 (mixture of isomers) [Example 14, ((R,S)-4-(4-(Amino-imino-methyl)phenyl)-3-((4-biphenylyl)methyl)-4-methyl-2,5-dioxoimidazolidin-1-yl)acetyl-L-aspartyl-L-phenylglycine] |
